Experimental data published in article PMC6522912, “Evaluation of the published kinase inhibitor set to identify multiple inhibitors of bacterial ATP-dependent mur ligases” (Journal of Enzyme Inhibition and Medicinal Chemistry, 2019).

Key:
E. coli MurC = E. coli MurC (Escherichia coli, UniProt P17952); assay: Malachite green inhibition assay, MurC; assay type: biochemical; settings: Table S1, PKIS screening; for remaining activity at 100 µM: 0.25 h, read-out: RA [%] at 100 µM MurC
Protocol: (§1) Inhibition of the Mur ligases was determined using the malachite green assay, with slight modifications.
(§2) In all cases, the final concentration of DMSO was 5% (v/v). After incubation for 15 min at 37 °C, the enzyme reaction was terminated by addition of 100 µM Biomol green reagent, and the absorbance was measured at 650 nm after 5 min. All of the experiments were run in duplicate. Residual activities were calculated with respect to control assays without the tested compounds, but with the 5% DMSO carrier.
(§3) The published kinase inhibitor set compounds were evaluated for inhibition of MurC, D and F ligases from E. coli using the Malachite green assay, which detects orthophosphate generated during enzymatic reactions. To avoid non-specific inhibition due to aggregate formation, all of the compounds were tested in the presence of detergent (0.005% Triton-X114). The data are presented as the residual activities of these Mur ligases in the presence of 100 µM of each test compound (Supporting Information Table S1). […] Additionally, regarding the data of profiled compounds in large panels of human kinase assays[41]

E. coli MurD = E. coli MurD (Escherichia coli, UniProt P14900); assay: biochemical; settings: 0.25 h, Table S1, PKIS screening; read-out: RA [%] at 100 µM MurD
Protocol: as §1, §2
The published kinase inhibitor set compounds were evaluated for inhibition of MurC, D and F ligases from E. coli using the Malachite green assay, which detects orthophosphate generated during enzymatic reactions. To avoid non-specific inhibition due to aggregate formation, all of the compounds were tested in the presence of detergent (0.005% Triton-X114). The data are presented as the residual activities of these Mur ligases in the presence of 100 µM of each test compound (Supporting Information Table S1).

E. coli MurF = E. coli MurF (Escherichia coli, UniProt P11880); assay: biochemical; settings: Table S1, PKIS screening; for remaining activity at 100 µM: 0.25 h, read-out: RA [%] at 100 µM MurF
Protocol: as §1, §2, §3

E. coli MurF, sequence (P11880 whole entry): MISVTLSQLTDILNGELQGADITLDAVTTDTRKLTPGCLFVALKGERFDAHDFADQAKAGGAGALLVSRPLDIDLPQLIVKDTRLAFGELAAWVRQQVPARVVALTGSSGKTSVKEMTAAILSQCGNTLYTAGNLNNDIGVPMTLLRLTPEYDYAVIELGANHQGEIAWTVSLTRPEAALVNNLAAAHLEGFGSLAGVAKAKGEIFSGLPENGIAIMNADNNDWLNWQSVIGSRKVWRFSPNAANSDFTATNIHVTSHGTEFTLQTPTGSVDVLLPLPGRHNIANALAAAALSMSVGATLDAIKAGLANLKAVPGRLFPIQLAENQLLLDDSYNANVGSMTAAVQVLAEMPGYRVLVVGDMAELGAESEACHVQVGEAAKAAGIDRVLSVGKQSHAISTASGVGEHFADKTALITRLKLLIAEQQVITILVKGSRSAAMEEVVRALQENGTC
E. coli MurD, sequence (P14900 whole entry): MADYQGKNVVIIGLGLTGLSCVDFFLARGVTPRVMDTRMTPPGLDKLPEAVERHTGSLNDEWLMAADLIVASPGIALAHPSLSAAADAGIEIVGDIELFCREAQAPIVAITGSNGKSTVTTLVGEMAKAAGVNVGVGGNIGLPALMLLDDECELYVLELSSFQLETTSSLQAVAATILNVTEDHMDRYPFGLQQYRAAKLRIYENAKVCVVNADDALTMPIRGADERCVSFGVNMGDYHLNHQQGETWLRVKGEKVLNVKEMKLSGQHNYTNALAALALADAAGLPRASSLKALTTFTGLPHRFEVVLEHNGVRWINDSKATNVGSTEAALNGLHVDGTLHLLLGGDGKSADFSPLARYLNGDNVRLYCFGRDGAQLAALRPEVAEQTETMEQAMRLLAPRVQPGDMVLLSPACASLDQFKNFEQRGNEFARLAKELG
E. coli MurC, sequence (P17952 whole entry): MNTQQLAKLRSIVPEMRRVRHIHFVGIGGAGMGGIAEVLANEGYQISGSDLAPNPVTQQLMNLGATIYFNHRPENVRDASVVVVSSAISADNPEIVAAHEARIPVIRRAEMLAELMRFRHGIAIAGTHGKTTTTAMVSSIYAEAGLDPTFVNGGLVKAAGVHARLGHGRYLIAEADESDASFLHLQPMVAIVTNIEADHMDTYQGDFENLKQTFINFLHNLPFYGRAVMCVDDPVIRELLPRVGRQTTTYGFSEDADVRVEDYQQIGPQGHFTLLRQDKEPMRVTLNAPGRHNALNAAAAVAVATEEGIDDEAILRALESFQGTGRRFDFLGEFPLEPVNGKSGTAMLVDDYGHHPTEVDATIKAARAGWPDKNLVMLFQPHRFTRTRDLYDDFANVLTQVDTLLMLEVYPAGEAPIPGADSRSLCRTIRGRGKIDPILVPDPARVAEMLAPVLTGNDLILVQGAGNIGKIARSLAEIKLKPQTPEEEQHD

Compound	remaining activity at 100 µM (E. coli MurC) [%]	remaining activity at 100 µM (E. coli MurD) [%]	remaining activity at 100 µM (E. coli MurF) [%]	RA [%] at 100 µM MurC (E. coli MurC) [%]	RA [%] at 100 µM MurF (E. coli MurF) [%]
COc1cc2ncn(-c3cc(OCc4cccs4)c(C(N)=O)s3)c2cc1OC [GSK312948A]	98	72	79		
COc1ccc2ncn(-c3cc(O[C@H](C)c4ccccc4C(F)(F)F)c(C(N)=O)s3)c2c1 [GSK317315A]	53	47	51		
CC1=C(C(=O)Nc2ccc3[nH]ncc3c2)C(c2ccc(F)cc2)NC(c2ccc(C(F)(F)F)nc2)=N1 (stereo not drawn) [GSK317354A]	68	96	96		
COc1cc2ncn(-c3cc(OCc4ccccc4S(C)(=O)=O)c(C#N)s3)c2cc1OC [GSK319347A]	59	100	75		
CC1=C(C(=O)Nc2ccc3[nH]nc(C)c3c2)C(c2ccc(C(F)(F)F)cc2)CC(=O)N1 (stereo not drawn) [GSK466314A]	79	100	79		
CC1=C(C(=O)Nc2cc(Cl)c3[nH]ncc3c2)C(c2ccc(C(F)(F)F)cc2)CC(=O)N1 (stereo not drawn) [GSK466317A]	80	99	71		
CCn1c(-c2nonc2N)nc2c(C#CC(C)(C)O)ncc(OCC3CCNCC3)c21 [GSK554170A]	85	89	96		
CCn1c(-c2nonc2N)nc2c(C#CCN)ncc(OCCCN)c21 [GSK561866B]	52	82	66		
C[C@@H](Oc1cc(-n2cnc3ccc(OCC4CCN(C)CC4)cc32)sc1C(N)=O)c1ccccc1Cl [GSK571989A]	51	53	53		
C[C@@H](Oc1cc(-n2cnc3ccc(OC4CCN(C)CC4)cc32)sc1C(N)=O)c1ccccc1Cl [GSK579289A]	67	70	66		
COc1ccc(-c2ccncc2)cc1C(N)=O [GSK605714A]	86	91	90		
CCn1c(-c2nonc2N)nc2c(C#CC(C)(C)O)ncc(OC[C@@H]3CCCN3)c21 [GSK614526A]	65	89	100		
CCn1c(-c2nonc2N)nc2c(C#CC(C)(C)O)ncc(OC3CCNCC3)c21 [GSK619487A]	77	86	100		
Cc1cc(O)cc(Nc2ccnc3cc(-c4ccccn4)ccc23)c1 [GSK3206866A]				76	29
Cc1cccc2c1NC(=O)C2=NNc1ccc(S(N)(=O)=O)cc1 [GW282536X]	93		27		
c1ccc(Oc2ccc(Nc3ncc(-c4ccccc4)o3)cc2)cc1 [GW641155A]	66		86		
NC(=O)c1cccc(Nc2nccc(Nc3cccc(F)c3)n2)c1 [GW759710A]	100		100		
Clc1ccc(CNc2nccc(-c3cnn4ncccc34)n2)cc1 [GW781673X]	79		63		
COc1cccc(-n2ncc3c(N/N=C/c4ccncc4)ncnc32)c1 [GW784752X]	76		93		
CC(=O)NCc1cccc(C#Cc2cncnc2Nc2ccc(OCc3cccc(F)c3)c(Cl)c2)c1 [GW807930X]	66		69		
COc1cccc(-c2c[nH]c3c(N/N=C/c4ccncc4)ncnc23)c1 [GW814408X]	98		87		
COc1cc(Nc2ncc3c(C)nc(-c4cccc(C(F)(F)F)c4)n3n2)cc(OC)c1OC [GW837331X]	65		89		
OCc1ccc(-c2nc(-c3ccccn3)c(-c3ccc4c(c3)OCO4)[nH]2)cc1 [SB-431533]	95		75		
CCn1c(-c2nonc2N)nc2ccccc21 [SB-693162]	78		100		
Cn1c(-c2nonc2N)nc2cnccc21 [SB-736290]	71		90		
